“And” between values parts separate entries of the source, which are not always exact repeats. Identical values can stand only once.
Columns and labels:
human Erα = molecular target: T1, human Erα (Homo sapiens, UniProt P03372); assay: ERα transactivation (CHO, ERE-LUC); format: cell-based
T1 construct: host or cells: CHO, transient co-transfection
Description: The CHO cell line was selected to express estrogen α and β protein and the gene expression under the tested compounds stimulation was analyzed. The co-transfection with vector encoding the human full-length steroid receptors hERα and hERβ and reporter vector ERE/LUC was performed. Transient and stable transfectants with protein overexpression were induced by tested compounds (17β-estradiol or EC313) or the mixture: estradiol and appropriate range of concentration of EC313. Agonist and antagonist properties of EC313 toward tested receptor ERα and ERβ were analyzed using luminescence detection.
Plasmid included vectors coding sequences for the receptor as well as the reporter gene. […]
The ability of EC313 to agonize and/or antagonize ER receptor expression was analyzed in the following test system: co-transfected CHO cells were stimulated with estradiol (0.009 nM - 1200 nM) and EC313 (0.009 nM - 1200 nM) for detection agonistic activity. The antagonistic activity was assessed during the competitive interaction between EC313 (0.009 nM - 1200nM) and an appropriate concentration of estradiol (see Table 3 ). […] After incubating the cells for 24h with the tested compounds, the luminescent signal generated by the luciferase activity was detected.

[1] = molecular target: T2, hGR-LBD purified recombinant protein (Homo sapiens, UniProt P04150); assay: Competitive binding, GR ligand binding domain
T2 construct: purchased Thermo Fisher Scientific
T2 sequence (P04150 524-758 limits assumed): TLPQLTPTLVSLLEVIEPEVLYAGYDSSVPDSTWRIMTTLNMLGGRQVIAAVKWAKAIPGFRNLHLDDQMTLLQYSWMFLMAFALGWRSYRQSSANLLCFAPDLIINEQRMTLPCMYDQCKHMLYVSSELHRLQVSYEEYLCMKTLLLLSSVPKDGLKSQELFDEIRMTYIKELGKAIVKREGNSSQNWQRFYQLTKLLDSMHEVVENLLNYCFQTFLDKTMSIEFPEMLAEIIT
Description: The study aimed to characterize the competitive binding profile of EC313 to relevant human nuclear receptors. For the assays, commercially available ‘ligand binding domain’ proteins were purchased (Thermo Fisher Scientific). In addition, the full-length receptor proteins were expressed in transfected HI insect cells using the `Bac-to-bac Baculovirus expression system´ (Thermo Fisher Scientific). Cellular lysates served as receptor preparation. Receptor protein preparations were incubated with tritiated reference ligands and EC313 or reference steroids at concentrations between 0.1 and 1000 nM for 2h at 4°C to reach equilibrium. Subsequently, unbound steroids were adsorbed to dextran-coated charcoal (Sigma Aldrich), separated by filtration, and the remaining radioactivity was quantified in a ß-counter (Perkin Elmer). Displacement curves were fitted using the GraphPad Prism 7 free version to obtain EC50 values. Relative binding affinity (RBA [%], (C50ref/C50test)*100) and the competition coefficient (C50test/C50ref) were used to describe the relative binding potency of EC313 compared to the reference ligands.

[2] = system: estrogen-primed endometrium of immature rabbits; assay: McPhail assay, estrogen-primed rabbit endometrium; format: in vivo; conditions: 10 and 30 mg/animal/day; progesterone 1 mg/animal/day; p< 0.05
[3] = GR-LBD, EC313 relative to Dexamethasone

T1 sequence (P03372 whole entry): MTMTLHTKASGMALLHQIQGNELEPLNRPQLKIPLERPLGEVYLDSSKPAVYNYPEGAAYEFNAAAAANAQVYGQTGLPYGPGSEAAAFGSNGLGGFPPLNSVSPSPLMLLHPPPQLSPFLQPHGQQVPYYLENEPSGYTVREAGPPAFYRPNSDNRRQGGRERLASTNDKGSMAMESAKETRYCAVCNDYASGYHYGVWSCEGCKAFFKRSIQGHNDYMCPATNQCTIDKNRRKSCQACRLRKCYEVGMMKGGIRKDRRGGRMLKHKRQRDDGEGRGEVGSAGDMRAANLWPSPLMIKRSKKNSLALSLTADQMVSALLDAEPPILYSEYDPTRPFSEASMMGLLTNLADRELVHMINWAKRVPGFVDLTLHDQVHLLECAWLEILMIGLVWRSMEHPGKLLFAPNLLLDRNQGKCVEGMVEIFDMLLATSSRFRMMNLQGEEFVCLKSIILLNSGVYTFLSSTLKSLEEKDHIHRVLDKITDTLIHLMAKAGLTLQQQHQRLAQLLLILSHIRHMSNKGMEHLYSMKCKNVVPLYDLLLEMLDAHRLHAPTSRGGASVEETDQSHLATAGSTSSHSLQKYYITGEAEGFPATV

C[C@]12C[C@H](c3ccc(-c4ccoc4)cc3)C3=C4CCC(=O)C=C4CC[C@H]3[C@@H]1CC[C@]21OCCC1=C(F)F [EC313]
agonistic or antagonistic activity (human Erα): no agonistic or antagonistic activity
Comp. Coefficient [1, 3]: 2 and 1.7
RBA [1, 3]: 60%
IC50 ([1]; hGR-LBD purified recombinant protein): 19.1 ± 0.9 nM
antagonistic action with co-administered progesterone [2]: significant
